These results are taken from patent publication EP0163537A1, “1-Propanone derivatives and pharmaceutical compositions containing same” (priority 1984, dated 1985).

Experiment [1] deals with Male mice of ddY strain. Description: Test 2 Anti-tremorine activity (inhibition of tremorine-induced tremor). It counts as in vivo. The note with it: for responders at 50 mg/kg: Mus musculus, po, read-out: Inhibition of tremor (%).
Procedure: Male mice of ddY strain, weighing 28 to 32 g, were used in groups of eight or ten. The test compounds were dissolved in distilled water and administered orally in a dose of 50 mg/kg. After 30 minutes, tremorine dihydrochloride was subcutaneously administered in a dose of 20 mg/kg. Then, the occurrence of tremor was observed after the lapse of 30 and 60 minutes.
The subject of experiment [2] is Male mice of ddY strain. Put plainly: Test 1 Anti-nicotine activity (inhibition of nicotine-induced convulsive death). The note with it: 200 mg/kg po, nicotine 2 mg/kg iv after 1 h, observed 1 h; for responders at 200 mg/kg: Mus musculus. It counts as in vivo. The method, then: Male mice of ddY strain, weighing 28 to 33 g, were used in groups of eight or twelve. The test compounds were dissolved in distilled water and administered orally in a dose of 200 mg/kg. After an hour, nicotine was intravenously administered in a dose of 2 mg/kg.

Where [3] appears, read: Table-3d, 50 mg/kg po, After 30 min., 10 animals used.
The mark [4] stands for this setting: Table-3d, 50 mg/kg po, After 60 min., 10 animals used.
Setting [5] is: 0.5 h, Table-3a, 50 mg/kg po, After 30 min. from tremorine 20 mg/kg sc, 8 animals used.
[6] abbreviates: 1 h, Table-3a, 50 mg/kg po, After 60 min. from tremorine 20 mg/kg sc, 8 animals used.
Setting [7] is: po, 1 h, Table-2a, 8 animals used.
[8] abbreviates: 0.5 h, Table-3b, 50 mg/kg po, After 30 min., 10 animals used.
The mark [9] stands for this setting: 1 h, Table-3b, 50 mg/kg po, After 60 min., 10 animals used.
Setting [10] is: Table-3b, 50 mg/kg po, After 30 min., 10 animals used.
Setting [11] is: Table-3b, 50 mg/kg po, After 60 min., 10 animals used.

SMILES strings stand for the structures. Structures can show the parent of a compound that is named as a salt. Where two headings read alike, the source gives them in different places.

In the case of `CCCC(CN1CCCC1)C(=O)c1ccc2c(c1)CCO2.Cl` (stereo not shown) [Example 98, 1-(2,3-Dihydro-5-benzofuranyl)-2-n-propyl-3-(1-pyrrolidinyl)-1-propanone hydrochloride], the responders at 50 mg/kg was 100% in the experiment with Male mice of ddY strain [1] (0.5 h) and 90% in the experiment on Male mice of ddY strain [1] (1 h). This compound displayed a responders at 200 mg/kg in the experiment with Male mice of ddY strain [2] (Table-2c, 12 animals used) of 0%. Further, the “Number of surviving animals” value in the experiment with Male mice of ddY strain [2] (Table-2c, 12 animals used) came out at 0.

For `CCCC(CN1CCCCCC1)C(=O)c1ccc2c(c1)CCO2.Cl` (stereo not shown) [Example 100, 1-(2,3-Dihydro-5-benzofuranyl)-2-n-propyl-3-(hexahydro-1H-azepin-1-yl)-1-propanone hydrochloride], the responders at 50 mg/kg in the experiment on Male mice of ddY strain [1] (0.5 h) and with Male mice of ddY strain [1] (1 h) was 100% in each case. Moreover, the “Number of animals exhibiting no tremor” value in the experiment with Male mice of ddY strain [1] (setting [3]) and with Male mice of ddY strain [1] (setting [4]) was 10 in each case. The responders at 200 mg/kg in the experiment with Male mice of ddY strain [2] (Table-2c, 12 animals used) is 0%. Besides, the “Number of surviving animals” value in the experiment on Male mice of ddY strain [2] (Table-2c, 12 animals used) is recorded as 0.

As for `CCC(CN1CCCC1)C(=O)c1ccc2c(c1)OCO2` (stereo not shown) [Example 56, 2-Ethyl-1-(3,4-methylenedioxyphenyl)-3-(1-pyrrolidi-nyl)-1-propanone hydrochloride], in the experiment on Male mice of ddY strain [2] (Table-2b, 12 animals used), the responders at 200 mg/kg is 41.7% and the “Number of surviving animals” value turned out to be 5.

Turning to `CCC(CN1CCCCCC1)C(=O)c1ccc2c(c1)CCO2.Cl` (stereo not shown) [Example 96, 1-(2,3-Dihydro-5-benzofuranyl)-2-ethyl-3-(hexa-hydro-1H-azepin-1-yl)-1-propanone hydrochloride], the responders at 50 mg/kg with Male mice of ddY strain [1] (0.5 h, Table-3d, 50 mg/kg po, After 30 min., 10 animals used) was 100%; in the experiment with Male mice of ddY strain [1] (1 h, Table-3d, 50 mg/kg po, After 60 min., 10 animals used) it was 100%. Also, the “Number of animals exhibiting no tremor” value with Male mice of ddY strain [1] (setting [3]) and with Male mice of ddY strain [1] (setting [4]) was 10 throughout. Besides, the responders at 200 mg/kg in the experiment with Male mice of ddY strain [2] (po, 1 h, Table-2c, 12 animals used) worked out at 41.7%. Moreover, in the experiment with Male mice of ddY strain [2] (Table-2c, 12 animals used), the “Number of surviving animals” value was found to be 5.

Regarding `CC(CN1CCCCC1)C(=O)c1ccc(C2CCCC2)cc1.Cl` (stereo not shown) [Example 41, 1-(4-Cyclopentylphenyl)-2-methyl-3-piperidino-1-propanone hydrochloride], the responders at 50 mg/kg in the experiment with Male mice of ddY strain [1] (setting [5]) is 75%; in the experiment on Male mice of ddY strain [1] (setting [6]) it was 12.5%. The responders at 200 mg/kg with Male mice of ddY strain [2] (setting [7]) was determined as 37.5%. The “Number of surviving animals” value in the experiment with Male mice of ddY strain [2] (Table-2a, 8 animals used) is on record as 3.

For `CCC(CN1CCCC1)C(=O)c1ccc(C2CC2)cc1.Cl` (stereo not shown) [Example 10, 1-(4-Cyclopropylphenyl)-2-ethyl-3-(1-pyrrolidinyl)-1-propanone hydrochloride], the responders at 50 mg/kg with Male mice of ddY strain [1] (setting [5]) and with Male mice of ddY strain [1] (setting [6]) was 100% throughout. Further, the “Number of animals exhibiting no tremor” value with Male mice of ddY strain [1] (Table-3a, 50 mg/kg po, After 30 min. from tremorine 20 mg/kg sc, 8 animals used) came out at 8; in the experiment with Male mice of ddY strain [1] (Table-3a, 50 mg/kg po, After 60 min. from tremorine 20 mg/kg sc, 8 animals used) it was 8. In addition, the responders at 200 mg/kg in the experiment with Male mice of ddY strain [2] (setting [7]) came to 0%. Moreover, the “Number of surviving animals” value in the experiment with Male mice of ddY strain [2] (Table-2a, 8 animals used) came out at 0.

Take `Cl.O=C(c1ccc(C2CC2)cc1)C(CN1CCCCC1)C1CCCC1` (stereo not shown) [Example 37, 2-Cyclopentyl-1-(4-cyclopropylphenyl)-3-piperidino-1-propanone hydrochloride]: the responders at 50 mg/kg in the experiment on Male mice of ddY strain [1] (setting [8]) and in the experiment with Male mice of ddY strain [1] (setting [9]) was 80% in each case. Further, the “Number of animals exhibiting no tremor” value in the experiment with Male mice of ddY strain [1] (setting [10]) and in the experiment on Male mice of ddY strain [1] (setting [11]) was 8 in each case.

As to `CC(CN1CCCC1)C(=O)c1ccc2c(c1)OCO2` (stereo not shown) [Example 60, 2-Methyl-1-(3,4-methylenedioxyphenyl)-3-(1-pyrrolidi-nyl)-1-propanone hydrochloride], in the experiment with Male mice of ddY strain [2] (Table-2b, 12 animals used), the responders at 200 mg/kg is 58.3% and the “Number of surviving animals” value worked out at 7.

In the case of `CC(CN1CCCCCC1)C(=O)c1ccc2c(c1)OCO2.Cl` (stereo not shown) [Example 61, 2-Methyl-1-(3,4-methylenedioxyphenyl)-3-(hexahydro-1H-azepin-1-yl)-1-propanone hydrochloride], in the experiment on Male mice of ddY strain [2] (Table-2b, 12 animals used), the responders at 200 mg/kg is 58.3% and the “Number of surviving animals” value is 7.

Turning to `CC(C)C(CN1CCCCC1)C(=O)c1ccc(C2CC2)cc1.Cl` (stereo not shown) [Example 5, 1-(4-Cyclopropylphenyl)-2-isopropyl-3-piperidino-1-propanone hydrochloride], the responders at 50 mg/kg with Male mice of ddY strain [1] (setting [8]) and with Male mice of ddY strain [1] (setting [9]) was 100% throughout. Moreover, the “Number of animals exhibiting no tremor” value with Male mice of ddY strain [1] (setting [10]) and in the experiment with Male mice of ddY strain [1] (setting [11]) was 10 throughout.
